Here are results for 44 compounds from patent US11612606B2, “8-aminoisoquinoline compounds and uses thereof” (priority 2018, dated 2023).

The target in the experiment is HPK full length, T165E S171E (Homo sapiens (Human), UniProt Q92918, S171E/T165E). The experiment is described as follows: HPK1-FL HTRF enzymatic assay ("HTRF"). Format: biochemical. To be noted: ATP 1 mM, read-out: HPK1 Ki. The method, then: Assay Principle: HPK-FL enzyme phosphorylates Biotin-SLP-76 substrate in the presence of ATP at […] and varying concentrations of test compound. Product is detected by FRET using Eu-anti-pSLP76 Ab and SA-XL665. Also see www.cisbio.com/HTRF for additional HTRF technology information.
Sequence of HPK full length, T165E S171E (Q92918 whole entry T165E/S171E, looked up): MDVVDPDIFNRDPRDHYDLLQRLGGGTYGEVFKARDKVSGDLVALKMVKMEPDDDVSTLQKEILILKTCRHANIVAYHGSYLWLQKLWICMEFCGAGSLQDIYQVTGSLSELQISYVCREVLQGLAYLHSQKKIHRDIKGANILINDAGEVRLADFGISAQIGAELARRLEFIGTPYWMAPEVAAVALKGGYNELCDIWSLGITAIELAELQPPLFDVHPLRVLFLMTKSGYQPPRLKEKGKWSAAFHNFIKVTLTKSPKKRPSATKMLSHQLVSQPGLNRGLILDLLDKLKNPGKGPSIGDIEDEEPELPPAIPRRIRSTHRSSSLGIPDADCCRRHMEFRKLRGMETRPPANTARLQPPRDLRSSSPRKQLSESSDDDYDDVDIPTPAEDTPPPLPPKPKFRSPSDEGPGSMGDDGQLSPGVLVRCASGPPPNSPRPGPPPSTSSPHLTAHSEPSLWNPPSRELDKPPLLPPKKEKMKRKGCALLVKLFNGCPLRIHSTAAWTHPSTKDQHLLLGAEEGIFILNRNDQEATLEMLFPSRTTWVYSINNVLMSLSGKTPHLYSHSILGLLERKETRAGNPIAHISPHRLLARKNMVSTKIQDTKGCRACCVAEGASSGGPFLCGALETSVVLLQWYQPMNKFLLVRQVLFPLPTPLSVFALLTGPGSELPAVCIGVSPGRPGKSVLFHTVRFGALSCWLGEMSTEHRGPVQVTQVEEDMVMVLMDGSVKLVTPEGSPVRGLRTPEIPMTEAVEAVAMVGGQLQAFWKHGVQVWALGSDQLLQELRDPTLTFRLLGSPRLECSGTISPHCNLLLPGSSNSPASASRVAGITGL
Instrumentation: Echo555 compound dispenser; Agilent Bravo; Perkin Elmer Envision.
To a 384 well Proxiplate with 80 nL compound or DMSO spotted on was added 4 μl/well kinase mix. The mixture was preincubated for 30 minutes and then 4 μl/well substrate mix was added. The solution was incubated for 60 min and then 4 μl/well detection mix was added. The solution was incubated for another 60 min.
Exemplary compounds were tested in the HTRF binding assays.

pKi: −log10 of the molar value. Counter-ions that a name gives are not always drawn. Where only a bound is given, the exact number is not on record here.

Take `Cc1c(-c2cc3cc(NC(=O)O[C@@H]4CO[C@@]5(CCN(C)C5)C4)ncc3c(N)c2F)cnc2c1NCCO2` (single isomer, unassigned) [Compound 467a]: the negative logarithm of the Ki (pKi) (usually −log10 of the Ki, conventionally taken in molar units) is 10.51.

For `Cc1c(-c2cc3cc(NC(=O)O[C@@H]4CO[C@]5(CCN(C)C5)C4)ncc3c(N)c2F)cnc2c1NCCO2` (single isomer, unassigned) [Compound 467c], the negative logarithm of the Ki (pKi) was 10.57. As to `Cc1c(-c2cc3cc(NC(=O)O[C@H]4CO[C@@]5(CCN(C)C5)C4)ncc3c(N)c2F)cnc2c1NCCO2` (single isomer, unassigned) [Compound 467d], the pKi is over 10.89.

Take `CCN1C[C@H](OC(=O)Nc2cc3cc(-c4cnc5c(c4C)NCCO5)c(F)c(N)c3cn2)CC1=O` (single isomer, unassigned) [Compound 478a]: the negative logarithm of the Ki (pKi) is 9.60. The value for `CCN1C[C@@H](OC(=O)Nc2cc3cc(-c4cnc5c(c4C)NCCO5)c(F)c(N)c3cn2)CC1=O` (single isomer, unassigned) [Compound 478b, (5)-1-Ethyl-5-oxopyrrolidin-3-yl (8-amino-7-fluoro-6-(8-methyl-2,3-dihydro-1H-pyrido[2,3-b][1,4]oxazin-7-yl)isoquinolin-3-yl)carbamate] was over 10.89. Consider `Cc1c(-c2cc3cc(NC(=O)O[C@H]4CC(=O)N(C(C)C)C4)ncc3c(N)c2F)cnc2c1NCCO2` (single isomer, unassigned) [Compound 479a], for which the negative-log Ki (pKi) was 10.68. As for `Cc1c(-c2cc3cc(NC(=O)O[C@@H]4CC(=O)N(C(C)C)C4)ncc3c(N)c2F)cnc2c1NCCO2` (single isomer, unassigned) [Compound 479b], the pKi was over 10.89. As to `Cc1c(-c2cc3cc(NC(=O)O[C@@H]4CN(C)C(=O)C4(C)C)ncc3c(N)c2F)cnc2c1NCCO2` (single isomer, unassigned) [Compound 480a], the negative-log Ki (pKi) is 10.47.

On to `Cc1c(-c2cc3cc(NC(=O)O[C@H]4CN(C)C(=O)C4(C)C)ncc3c(N)c2F)cnc2c1NCCO2` (single isomer, unassigned) [Compound 480b], for which the pKi was 9.55. The same measure for `Cc1c(-c2cc3cc(NC(=O)O[C@H]4CC(=O)N(C)C4)ncc3c(N)c2F)cnc2c1NCCC2` (single isomer, unassigned) [Compound 481a]: 9.74. As for `Cc1c(-c2cc3cc(NC(=O)O[C@@H]4CC(=O)N(C)C4)ncc3c(N)c2F)cnc2c1NCCC2` (single isomer, unassigned) [Compound 481b], the pKi is 10.74. With `Cc1c(-c2cc3cc(NC(=O)O[C@@H]4Cc5nccn5C4)ncc3c(N)c2F)cnc2c1NCCO2` (single isomer, unassigned) [Compound 504a], the negative-log Ki (pKi) is over 10.89. As for `Cc1c(-c2cc3cc(NC(=O)O[C@H]4Cc5nccn5C4)ncc3c(N)c2F)cnc2c1NCCO2` (single isomer, unassigned) [Compound 504b], the pKi is 9.12.

On to `Cc1c(-c2cc3cc(NC(=O)OC4C5COCC4CN(C(C)C)C5)ncc3c(N)c2F)cnc2c1NCCO2` (single isomer, unassigned) [Compound 506a], for which the negative-log Ki (pKi) was over 10.89.

On to `Cc1c(-c2cc3cc(NC(=O)OC4C5COCC4CN(CC(F)F)C5)ncc3c(N)c2F)cnc2c1NCCO2` (single isomer, unassigned) [Compound 507a], for which the pKi was over 10.89. For `Cc1c(-c2cc3cc(NC(=O)O[C@H]4CCO[C@@H]4C)ncc3c(N)c2F)cnc2c1NCCO2` (single isomer, unassigned) [Compound 510b], the negative logarithm of the Ki (pKi) was 9.51. Consider `Cc1c(-c2cc3cc(NC(=O)O[C@@H]4CCO[C@@H]4C)ncc3c(N)c2F)cnc2c1NCCO2` (single isomer, unassigned) [Compound 510d], for which the pKi was 10.80. The same measure for `Cc1c(-c2cc3cc(NC(=O)O[C@@H]4CCC5(CCN(C6COC6)CC5)C4)ncc3c(N)c2F)cnc2c1NCCO2` (single isomer, unassigned) [Compound 511a]: over 10.89; for `Cc1c(-c2cc3cc(NC(=O)O[C@H]4CCC5(CCN(C6COC6)CC5)C4)ncc3c(N)c2F)cnc2c1NCCO2` (single isomer, unassigned) [Compound 511b]: 10.77; for `CC[C@@H]1COC[C@H]1OC(=O)Nc1cc2cc(-c3cnc4c(c3C)NCCO4)c(F)c(N)c2cn1` (single isomer, unassigned) [Compound 515a]: 9.98. With `CC[C@H]1COC[C@@H]1OC(=O)Nc1cc2cc(-c3cnc4c(c3C)NCCO4)c(F)c(N)c2cn1` (single isomer, unassigned) [Compound 515b], the negative-log Ki (pKi) was 10.77. The same measure for `Cc1c(-c2cc3cc(NC(=O)O[C@H]4COC[C@@H]4C4CC4)ncc3c(N)c2F)cnc2c1NCCO2` (single isomer, unassigned) [Compound 516a]: 10.51; for `Cc1c(-c2cc3cc(NC(=O)O[C@@H]4COC[C@H]4C4CC4)ncc3c(N)c2F)cnc2c1NCCO2` (single isomer, unassigned) [Compound 516b]: over 10.89; for `Cc1c(-c2cc3cc(NC(=O)O[C@@H]4CCOC4)ncc3c(N)c2F)cnc2c1NC[C@@H](F)O2` (single isomer, unassigned) [Compound 518a]: 10.16.

As for `Cc1c(-c2cc3cc(NC(=O)O[C@@H]4CCOC4)ncc3c(N)c2F)cnc2c1NC[C@H](F)O2` (single isomer, unassigned) [Compound 518b], the negative logarithm of the Ki (pKi) is 10.36. As for `Cc1c(-c2cc3cc(NC(=O)O[C@H](C)CN(C)C)ncc3c(N)c2F)cnc2c1NCCO2` (single isomer, unassigned) [Compound 523a], the pKi was 9.07. For `Cc1c(-c2cc3cc(NC(=O)O[C@@H](C)CN(C)C)ncc3c(N)c2F)cnc2c1NCCO2` (single isomer, unassigned) [Compound 523b, (5)-1-(Dimethylamino)propan-2-yl (8-amino-7-fluoro-6-(8-methyl-2,3-dihydro-1H-pyrido[2,3-b][1,4]oxazin-7-yl)isoquinolin-3-yl)carbamate], the pKi was 8.06.

With `Cc1c(-c2cc3cc(NC(=O)O[C@H](C)CO)ncc3c(N)c2F)cnc2c1NCCO2` (single isomer, unassigned) [Compound 530a], the pKi is 9.59.

Consider `Cc1c(-c2cc3cc(NC(=O)O[C@@H](C)CO)ncc3c(N)c2F)cnc2c1NCCO2` (single isomer, unassigned) [Compound 530b, (5)-1-Hydroxypropan-2-yl (8-amino-7-fluoro-6-(8-methyl-2,3-dihydro-1H-pyrido[2,3-b][1,4]oxazin-7-yl)isoquinolin-3-yl)carbamate], for which the negative logarithm of the Ki (pKi) was 9.96. With `Cc1c(-c2cc3cc(NC(=O)OC4CN(C(=O)[C@H]5C[C@@H]5F)C4)ncc3c(N)c2F)cnc2c1NCCC2` (single isomer, unassigned) [Compound 531a], the pKi is 10.26. The value for `Cc1c(-c2cc3cc(NC(=O)OC4CN(C(=O)[C@@H]5C[C@H]5F)C4)ncc3c(N)c2F)cnc2c1NCCC2` (single isomer, unassigned) [Compound 531b] was 9.82; that for `Cc1c(-c2cc3cc(NC(=O)O[C@@H]4CC[C@@](C)(O)C4)ncc3c(N)c2F)cnc2c1NCCO2` (single isomer, unassigned) [Compound 533a, hydrochloride] was 10.46.

In the case of `Cc1c(-c2cc3cc(NC(=O)O[C@H]4CC[C@](C)(O)C4)ncc3c(N)c2F)cnc2c1NCCO2` (single isomer, unassigned) [Compound 533b, hydrochloride], the pKi is 10.23. Consider `Cc1c(-c2cc3cc(NC(=O)O[C@H]4CC[C@@](C)(O)C4)ncc3c(N)c2F)cnc2c1NCCO2` (single isomer, unassigned) [Compound 533c, hydrochloride], for which the pKi is 10.85.

Consider `Cc1c(-c2cc3cc(NC(=O)O[C@@H]4CC[C@](C)(O)C4)ncc3c(N)c2F)cnc2c1NCCO2` (single isomer, unassigned) [Compound 533d, hydrochloride], for which the pKi is 10.82. Take `Cc1c(-c2cc3cc(NC(=O)O[C@@H]4COC[C@H]4C#N)ncc3c(N)c2F)cnc2c1NCCO2` (single isomer, unassigned) [Compound 538a]: the pKi was 10.24. In the case of `Cc1c(-c2cc3cc(NC(=O)O[C@H]4COC[C@@H]4C#N)ncc3c(N)c2F)cnc2c1NCCO2` (single isomer, unassigned) [Compound 538b], the pKi is 10.80. The value for `Cc1c(N)cncc1-c1cc2cc(NC(=O)O[C@H]3COC[C@@H]3C)ncc2c(N)c1F` (single isomer, unassigned) [Compound 544a] was 9.86; that for `Cc1c(N)cncc1-c1cc2cc(NC(=O)O[C@@H]3COC[C@H]3C)ncc2c(N)c1F` (single isomer, unassigned) [Compound 544b] was 8.57. The value for `Cc1c(-c2cc3cc(NC(=O)OC4CN(C(=O)[C@H]5C[C@@H]5F)C4)ncc3c(N)c2F)cnc2c1NCCO2` (single isomer, unassigned) [Compound 545a] was 10.68; that for `Cc1c(-c2cc3cc(NC(=O)OC4CN(C(=O)[C@@H]5C[C@H]5F)C4)ncc3c(N)c2F)cnc2c1NCCO2` (single isomer, unassigned) [Compound 545b] was 10.74; that for `CO[C@@H]1COC[C@H]1OC(=O)Nc1cc2cc(-c3cnc4c(c3C)NCCO4)c(F)c(N)c2cn1` (single isomer, unassigned) [Compound 546b] was 10.29.

Turning to `CCc1c(-c2cc3cc(NC(=O)O[C@H]4COC[C@@H]4C)ncc3c(N)c2F)cnc2c1NCCO2` (single isomer, unassigned) [Compound 555a, hydrochloride], the pKi is over 10.89. Regarding `Cc1c(-c2cc(N)c3cnc(NC(=O)O[C@H]4COC[C@@H]4C)cc3c2)cnc2c1NCCO2` (single isomer, unassigned) [Compound 556a, hydrochloride], the pKi was 10.49.
